From the NIST ThermoML archive (doi:10.1021/je049721u)
Several values for one entry are separate records, joined by “and”; a condition that tells them apart may be missing. Identical values can stand only once. Numbers after ± are expanded uncertainties.

Assays:
[1] = mn = molality of the nth substance listed, in mol/kg; details: 101.3 kPa, Liquid, m2 = 0
[2] = 101.3 kPa, Liquid

Row | Compound | mass density ([1]; 283.15 K) [kg/m3] | mass density ([1]; 293.15 K) [kg/m3] | mass density ([1]; 298.15 K) [kg/m3] | mass density ([1]; 303.15 K) [kg/m3] | mass density ([1]; 313.15 K) [kg/m3] | mass density ([1]; 323.15 K) [kg/m3] | mass density ([1]; 333.15 K) [kg/m3] | mass density ([2]; 283.15 K) | mass density ([2]; 293.15 K) | mass density ([2]; 298.15 K) | mass density ([2]; 303.15 K) | mass density ([2]; 313.15 K) | mass density ([2]; 323.15 K) | mass density ([2]; 333.15 K)
1 | CN(C)C=O [dimethylformamide] + [Co+2].[O-][Cl+3]([O-])([O-])[O-].[O-][Cl+3]([O-])([O-])[O-] | 958.163 ± 0.58 | 948.653 ± 0.59 | 943.884 ± 0.59 | 939.114 ± 0.59 | 929.529 ± 0.6 | 919.9 ± 0.61 | 910.2 ± 0.61 | – | – | – | – | – | – | –
2 | CN(C)C=O [dimethylformamide] + [O-][Cl+3]([O-])([O-])[O-].[O-][Cl+3]([O-])([O-])[O-].[Zn+2] | 958.163 ± 0.58 | 948.653 ± 0.59 | 943.884 ± 0.59 | 939.114 ± 0.59 | 929.529 ± 0.6 | 919.9 ± 0.61 | 910.2 ± 0.61 | – | – | – | – | – | – | –
3 | CN(C)C=O [dimethylformamide] + [Mn+2].[O-][Cl+3]([O-])([O-])[O-].[O-][Cl+3]([O-])([O-])[O-] | 958.077 ± 0.58 | 948.565 ± 0.58 | 943.797 ± 0.59 | 939.017 ± 0.59 | 929.437 ± 0.6 | 919.807 ± 0.6 | 910.12 ± 0.61 | – | – | – | – | – | – | –
4 | CN(C)C=O [dimethylformamide] + [Ni+2].[O-][Cl+3]([O-])([O-])[O-].[O-][Cl+3]([O-])([O-])[O-] | 958.163 ± 0.58 | 948.653 ± 0.59 | 943.884 ± 0.59 | 939.114 ± 0.59 | 929.529 ± 0.6 | 919.9 ± 0.61 | 910.2 ± 0.61 | – | – | – | – | – | – | –
5 | CN(C)C=O [dimethylformamide] | – | – | – | – | – | – | – | 958.077 ± 0.58 kg/m3 and 958.163 ± 0.58 kg/m3 and 958.075 ± 0.58 kg/m3 | 948.565 ± 0.58 kg/m3 and 948.653 ± 0.59 kg/m3 | 943.797 ± 0.59 kg/m3 and 943.884 ± 0.59 kg/m3 | 939.017 ± 0.59 kg/m3 and 939.114 ± 0.59 kg/m3 | 929.529 ± 0.6 kg/m3 and 929.437 ± 0.6 kg/m3 | 919.807 ± 0.6 kg/m3 and 919.9 ± 0.61 kg/m3 | 910.12 ± 0.61 kg/m3 and 910.2 ± 0.61 kg/m3
6 | CN(C)C=O [dimethylformamide] + [Cu+2].[O-][Cl+3]([O-])([O-])[O-].[O-][Cl+3]([O-])([O-])[O-] | 958.075 ± 0.58 | 948.565 ± 0.59 | 943.797 ± 0.59 | 939.017 ± 0.59 | 929.437 ± 0.6 | 919.807 ± 0.61 | 910.12 ± 0.61 | – | – | – | – | – | – | –
